Results from patent US20240000765A1, “COMBINATION TREATMENT OF LIVER DISORDERS” (Terns Pharmaceuticals, Inc., priority 2020, published 2024).

Key:
THRβ = target: T1, THRβ (Homo sapiens, UniProt P10828); test: Binding activity to the thyroxine receptor beta; settings: ratio of binding IC50
T1 sequence (P10828 1-461): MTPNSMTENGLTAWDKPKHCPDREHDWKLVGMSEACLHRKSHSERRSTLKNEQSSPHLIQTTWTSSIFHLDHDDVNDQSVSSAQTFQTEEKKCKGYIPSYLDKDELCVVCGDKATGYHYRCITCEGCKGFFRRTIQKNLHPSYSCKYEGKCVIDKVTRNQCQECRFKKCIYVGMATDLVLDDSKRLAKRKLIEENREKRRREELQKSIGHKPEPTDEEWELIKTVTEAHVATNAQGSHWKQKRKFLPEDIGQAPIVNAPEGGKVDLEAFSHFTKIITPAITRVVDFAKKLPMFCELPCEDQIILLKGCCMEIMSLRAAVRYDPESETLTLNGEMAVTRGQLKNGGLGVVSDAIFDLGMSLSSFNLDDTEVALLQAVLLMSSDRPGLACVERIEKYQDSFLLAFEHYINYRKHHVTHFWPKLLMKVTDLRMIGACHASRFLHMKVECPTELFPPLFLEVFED

THRα [1] = target: T2, THRα (Homo sapiens, UniProt P10827); test: Binding activity to THRα; settings: read-out: IC50 THRα binding force
T2 sequence (P10827 1-410 isoform P10827-2): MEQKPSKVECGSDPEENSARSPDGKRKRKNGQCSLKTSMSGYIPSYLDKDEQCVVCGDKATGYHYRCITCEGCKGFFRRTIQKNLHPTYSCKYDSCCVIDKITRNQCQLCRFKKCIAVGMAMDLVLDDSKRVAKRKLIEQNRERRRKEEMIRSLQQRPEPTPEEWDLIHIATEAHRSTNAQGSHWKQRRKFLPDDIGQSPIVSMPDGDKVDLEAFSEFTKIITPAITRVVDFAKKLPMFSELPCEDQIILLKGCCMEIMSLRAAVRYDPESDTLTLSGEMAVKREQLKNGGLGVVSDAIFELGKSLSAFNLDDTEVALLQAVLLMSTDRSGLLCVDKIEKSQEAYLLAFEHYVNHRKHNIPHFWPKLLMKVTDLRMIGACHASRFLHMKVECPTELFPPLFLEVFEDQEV

THRα [2] = target: T2, THRα; test: Agonistic activity toward THRα; type: biochemical
[3] = Pharmacokinetic evaluation in rats, intragastric infusion; type: in vivo; settings: SD rats, intragastric 2 mg/kg
Method: Drug Preparation: a certain amount of the drug was taken and added into a 2% Klucel LF+0.1% Tween 80 aqueous solution, to prepare a clear solution or a uniform suspension.
Dosage: SD rats were fasted overnight and given the drug by intragastric infusion at an administrated dose of 2 mg/kg and an administrated volume of 10 mL/kg each.
Operation: rats were dosed by intragastric infusion with the compounds. […] The heparinized sample tubes were then stored at −20° C., and the rats were allowed to eat food 2 h after the dosage.
Determination of contents of the compounds to be tested in the plasma of rats after intragastric infusion of the drugs at different concentrations: the plasma samples were thawed at room temperature, 50 μL each was taken and added into 130 μL of an internal standard working solution (1000 ng/mL, acetonitrile, tolbutamide), and the mixture was whirled for about 1 min and then centrifugated at 4° C. and 13000 rpm for 10 min. 50 μL of the supernatant was taken and mixed with 100 μL of 50% acetonitrile water, and then introduced for LC/MS/MS analysis.

mouse NASH model = test: Mouse NASH model (high fat diet + CCl4), Compound 2; type: in vivo, C57BL/6J mice
Method: C57BL/6J mice were fed a high fat diet for 10 weeks to induce obesity (>38 g BW). Obese mice were injected intraperitoneally (i.p.) twice a week for four weeks with 0.5 μl/g 25% CCl4 (formulated in olive oil) to induce fibrosis, and one group of normal BW mice were injected i.p. twice a week for four weeks with olive oil to serve as a healthy control. During the same dosing period, obese mice were fed orally once a day for 28 days with vehicle or varying doses of Compound 2. On CCl4 dosing days, CCl4 was administered at 4 hours post compound or vehicle dosing. On day 27, all animals were fasted for about 16 hours before terminal euthanasia. On day 28, all animals were sacrificed and various biological parameters were analyzed. Total body, liver, heart and brain weight were measured and changes in liver and heart weight were normalized using brain weight. […] Liver tissue histology was analyzed for effects of Compound 2 on steatosis, inflammation and fibrosis. […] Liver samples were collected for whole transcriptome analysis by RNA sequencing (RNAseq). RNAseq library (n=5 per group) preparation and sequencing was performed using Illumina standard protocols. Alignment of sequencing reads was performed using STAR aligner software and read counts were estimated using RSEM. Differentially expressed genes (compared to vehicle-treated NASH control mice) were determined using EdgeR software. Gene ontology analysis was performed using Advaita software with fold-change and adjusted p-value cutoffs of >1.5 and <0.05, respectively. Gene ontologies were derived from the Gene Ontology Consortium database (2019 Apr. 26) (Ashbumer et al., Gene ontology: Tool for the unification of biology. Nature Genetics 25(1): 25-9 (2000); Gene Ontology Consortium, Creating the Gene Ontology Resource: Design and Implementation. Genome Research 11: 1425-1433 (2001)).

For `N#Cc1nn(-c2cc(Cl)c(Oc3n[nH]c(=O)c4ccccc34)c(Cl)c2)c(=O)[nH]c1=O` [Compound 2], the “THRα/β selectivity (factor)” value (THRβ) was over 58.8, the IC50 (THRα [1]) was over 10 µM and the EC50 (THRα [2]) was 3.98 µM. For the same compound, the Curve area [3] was 24790 ± 3704 ng·h/mL, the “Peak blood drug concentration” value [3] was 2007 ± 106 ng/mL and the Time to peak [3] was 4.67 ± 1.15 h. For the same compound, the “liver fibrosis (histology)” value (mouse NASH model; 3 and 10 mpk) was “significantly reduced”, the “liver steatosis (histology)” value (mouse NASH model; all doses tested) was “significantly reduced” and the “serum ALT” value (mouse NASH model; all doses tested) was “significantly reduced”. For the same compound, the serum total cholesterol (mouse NASH model; all doses tested) was “significantly reduced”, the serum triglycerides (mouse NASH model; all doses tested) was “significantly reduced” and the “expression of genes associated with collagen extracellular matrix and hepatic stellate cell activation relative to NASH control” value (mouse NASH model; liver RNAseq) was “reducing their expression levels”. For the same compound, the heart/brain weight (mouse NASH model; oral once a day, 28 days) was “no effect”, the “liver inflammation (histology)” value (mouse NASH model; oral once a day, 28 days) was “trend in inflammation reduction” and the liver/brain weight (mouse NASH model; oral once a day, 28 days) was “significantly reduced”. The total body weight (mouse NASH model; oral once a day, 28 days) was “no effect”.
